Experimental data taken from ChEMBL document CHEMBL5154817, “Structure-activity relationship studies on O-alkylamino-tethered salicylamide derivatives with various amino acid linkers as potent anticancer agents” (Eur J Med Chem, 2022).
Values belong to the compound of their own block, whether it stands above or below them. The source made the active and inactive calls. The rule behind the calls is not given here.

What was measured:
MCF7 [1] = test: Antiproliferative activity against human MCF7 cells assessed as inhibition of cell growth incubated for 72 hrs by MTT assay; assay type: functional, cell-based; settings: MCF7, 72 h
MDA-MB-468 [2] = test: Antiproliferative activity against human MDA-MB-468 cells assessed as inhibition of cell growth incubated for 72 hrs by MTT assay; assay type: functional, cell-based; settings: MDA-MB-468, 72 h
MDA-MB-231 [3] = test: Antiproliferative activity against human MDA-MB-231 cells assessed as inhibition of cell growth incubated for 72 hrs by MTT assay; assay type: functional, cell-based; settings: MDA-MB-231, 72 h
[4] = Cytotoxicity against human MCF-10A cells incubated for 72 hrs by MTT assay; assay type: toxicity, cell-based
T47D [5] = test: Antiproliferative activity against human T47D cells assessed as inhibition of cell growth incubated fro 72 hrs by MTT assay; assay type: functional, cell-based
[6] = Toxicity in nude mouse xenografted with human MDA-MB-231 cells assessed as loss of body weight at 7.5 to 10 mg/kg, ip measured daily for 14 days; assay type: organism-based; settings: in vivo, 336 h, dose 7.5-10 mg/kg, time 14 day
[7] = target: Signal transducer and activator of transcription 3 (Homo sapiens) (UniProt P40763); test: Inhibition of STAT3 in human MDA-MB-231 cells assessed as suppression of STAT3 phosphorylation incubated for 24 hrs by Western blotting analysis; assay type: cell-based; settings: dose 1-10 µM, DDE = dose-dependent effect
Chain of Signal transducer and activator of transcription 3 (Homo sapiens) (P40763 whole entry): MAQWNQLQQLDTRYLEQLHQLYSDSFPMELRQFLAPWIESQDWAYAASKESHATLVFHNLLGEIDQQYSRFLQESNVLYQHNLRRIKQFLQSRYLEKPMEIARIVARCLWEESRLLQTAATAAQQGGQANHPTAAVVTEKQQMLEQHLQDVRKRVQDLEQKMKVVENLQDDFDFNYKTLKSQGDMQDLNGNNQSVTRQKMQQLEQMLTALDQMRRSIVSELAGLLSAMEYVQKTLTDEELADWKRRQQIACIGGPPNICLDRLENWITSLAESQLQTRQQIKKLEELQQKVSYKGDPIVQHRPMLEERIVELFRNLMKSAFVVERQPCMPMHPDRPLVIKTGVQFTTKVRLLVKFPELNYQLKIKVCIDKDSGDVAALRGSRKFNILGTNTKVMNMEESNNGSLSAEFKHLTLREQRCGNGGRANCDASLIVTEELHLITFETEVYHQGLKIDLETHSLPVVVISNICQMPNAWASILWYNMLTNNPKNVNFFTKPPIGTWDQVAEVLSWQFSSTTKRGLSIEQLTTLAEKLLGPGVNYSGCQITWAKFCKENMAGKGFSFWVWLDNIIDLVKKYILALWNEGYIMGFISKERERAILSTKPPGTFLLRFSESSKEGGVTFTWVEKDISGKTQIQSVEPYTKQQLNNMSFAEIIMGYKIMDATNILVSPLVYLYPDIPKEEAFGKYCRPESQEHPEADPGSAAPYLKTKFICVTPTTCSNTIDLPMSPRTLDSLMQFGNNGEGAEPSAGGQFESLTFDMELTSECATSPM

MDA-MB-231 [8] = test: Induction of apoptosis in human MDA-MB-231 cells assessed as increase in cleaved PARP level at 1 to 10 uM incubated for 48 hrs by Western blotting analysis; assay type: functional, cell-based; settings: dose 1-10 µM
MCF7 [9] = test: Inhibition of colony formation in human MCF7 cells incubated for 2 weeks measured by crystal violet staining method; assay type: functional, cell-based; settings: dose 1-10 µM, DDE = dose-dependent effect
MDA-MB-231 [10] = test: Antitumor activity against human MDA-MB-231 cells xenografted in nude mouse assessed as reduction in tumor volume at 10 mg/kg, ip measured every other day for 14 days; assay type: functional; settings: MDA-MB-231, 336 h, time 14 day
T47D [11] = test: Inhibition of colony formation in human T47D cells incubated for 2 weeks measured by crystal violet staining method; assay type: functional, cell-based; settings: dose 0.5-7.5 µM, DDE = dose-dependent effect
MDA-MB-231 [12] = test: Inhibition of colony formation in human MDA-MB-231 cells incubated for 2 weeks measured by crystal violet staining method; assay type: functional, cell-based; settings: dose 0.1-3 µM, DDE = dose-dependent effect
MDA-MB-231 [13] = test: Induction of apoptosis in human MDA-MB-231 cells assessed as viable cells at 5 uM incubated for 48 hrs by Annexin V staining based cell analyzer method (reference value: 92.55%); assay type: functional; settings: read-out: Activity
MDA-MB-231 [14] = test: Induction of apoptosis in human MDA-MB-231 cells assessed as viable cells at 1 uM incubated for 48 hrs by Annexin V staining based cell analyzer method (reference value: 92.55%); assay type: functional; settings: read-out: Activity
MDA-MB-231 [15] = test: Induction of apoptosis in human MDA-MB-231 cells assessed as late apoptotic cells at 5 uM incubated for 48 hrs by Annexin V staining based cell analyzer method (reference value: 4.45%); assay type: functional
MDA-MB-231 [16] = test: Induction of apoptosis in human MDA-MB-231 cells assessed as necrotic cells at 1 uM incubated for 48 hrs by Annexin V staining based cell analyzer method (reference value: 0.4%); assay type: functional
MDA-MB-231 [17] = test: Induction of apoptosis in human MDA-MB-231 cells assessed as necrotic cells at 5 uM incubated for 48 hrs by Annexin V staining based cell analyzer method (reference value: […]); assay type: functional
MDA-MB-231 [18] = test: Induction of apoptosis in human MDA-MB-231 cells assessed as late apoptotic cells at 10 uM incubated for 48 hrs by Annexin V staining based cell analyzer method (reference value: 4.45%); assay type: functional
MDA-MB-231 [19] = test: Induction of apoptosis in human MDA-MB-231 cells assessed as viable cells at 10 uM incubated for 48 hrs by Annexin V staining based cell analyzer method (reference value: 92.55%); assay type: functional; settings: read-out: Activity
MDA-MB-231 [20] = test: Induction of apoptosis in human MDA-MB-231 cells assessed as downregulation of Bcl-2 level at 1 to 10 uM incubated for 48 hrs by Western blotting analysis; assay type: functional, cell-based; settings: dose 1-10 µM
MDA-MB-231 [21] = test: Induction of apoptosis in human MDA-MB-231 cells assessed as late apoptotic cells at 1 uM incubated for 48 hrs by Annexin V staining based cell analyzer method (reference value: 4.45%); assay type: functional
MDA-MB-468 [22] = test: Inhibition of colony formation in human MDA-MB-468 cells incubated for 2 weeks measured by crystal violet staining method; assay type: functional, cell-based; settings: dose 0.5-7.5 µM, DDE = dose-dependent effect
MDA-MB-231 [23] = test: Induction of apoptosis in human MDA-MB-231 cells assessed as early apoptotic cells at 5 uM incubated for 48 hrs by Annexin V staining based cell analyzer method (reference value: 2.6%); assay type: functional
MDA-MB-231 [24] = test: Induction of apoptosis in human MDA-MB-231 cells assessed as increase in cleaved caspase-3 level at 1 to 10 uM incubated for 48 hrs by Western blotting analysis; assay type: functional, cell-based; settings: dose 1-10 µM
MDA-MB-231 [25] = test: Induction of apoptosis in human MDA-MB-231 cells assessed as early apoptotic cells at 10 uM incubated for 48 hrs by Annexin V staining based cell analyzer method (reference value: 2.6%); assay type: functional
MDA-MB-231 [26] = test: Induction of apoptosis in human MDA-MB-231 cells assessed as activation of Bax at 1 to 10 uM incubated for 48 hrs by Western blotting analysis; assay type: functional, cell-based; settings: dose 1-10 µM
MDA-MB-231 [27] = test: Induction of apoptosis in human MDA-MB-231 cells assessed as early apoptotic cells at 1 uM incubated for 48 hrs by Annexin V staining based cell analyzer method (reference value: 2.6%); assay type: functional
MDA-MB-231 [28] = test: Induction of apoptosis in human MDA-MB-231 cells assessed as necrotic cells at 10 uM incubated for 48 hrs by Annexin V staining based cell analyzer method (reference value: 0.4%); assay type: functional

Compound: NCCOc1ccc(Cl)cc1C(=O)Nc1ccc([N+](=O)[O-])cc1Cl
- IC50 (MCF7 [1]): 4140 nM
- IC50 (MDA-MB-468 [2]): 5050 nM
- IC50 (MDA-MB-231 [3]): 3480 nM
- IC50 (T47D [5]): 1880 nM

Compound: O=C(N[C@@H](Cc1ccccc1)C(=O)Nc1cc(C(F)(F)F)cc(C(F)(F)F)c1)c1cc(Cl)ccc1OC1CCNCC1
- IC50 (MCF7 [1]): 2630 nM
- IC50 (MDA-MB-468 [2]): 2630 nM
- IC50 (MDA-MB-231 [3]): 2320 nM
- IC50 at 72 h [4]: 5900 nM
- IC50 (T47D [5]): 3190 nM

Second part, led by results:

- IC50 (MCF7 [1]): 1520 nM
- IC50 (MDA-MB-468 [2]): 2380 nM
- IC50 (MDA-MB-231 [3]): 1530 nM
- IC50 (T47D [5]): 1590 nM
Compound: CC(C)[C@H](NC(=O)c1cc(Cl)ccc1OCCNC(=O)OC(C)(C)C)C(=O)Nc1ccc2c(c1)S(=O)(=O)C=C2
- IC50 at 72 h [4]: 2600 nM

- IC50 (MCF7 [1]): 9050 nM
- inhibition [7]: Dde
- IC50 (MDA-MB-468 [2]): 18300 nM
- IC50 (MDA-MB-231 [3]): 3380 nM
- IC50 (T47D [5]): 8920 nM
Compound: CC(C)[C@H](NC(=O)c1cc(Cl)ccc1OCCNC(=O)OC(C)(C)C)C(=O)Nc1ccc([N+](=O)[O-])cc1Cl
- Activity [6]: Non-Toxic
- Activity (MDA-MB-231 [8]): Active
- inhibition (MCF7 [9]): Dde
- inhibition in vivo at 10 mg/kg (MDA-MB-231 [10]): 55%
- inhibition (T47D [11]): Dde
- inhibition (MDA-MB-231 [12]): Dde
- viability at 5 µM (MDA-MB-231 [13]): 78.8%
- viability at 1 µM (MDA-MB-231 [14]): 94.2%
- Activity (MDA-MB-231 [15]): 10.9%
- Activity (MDA-MB-231 [16]): 0.3%
- Activity (MDA-MB-231 [17]): 0.55%
- Activity (MDA-MB-231 [18]): 35.7%
- viability at 10 µM (MDA-MB-231 [19]): 44.9%
- Activity (MDA-MB-231 [20]): Active
- Activity (MDA-MB-231 [21]): 2.6%
- inhibition (MDA-MB-468 [22]): Dde
- Activity (MDA-MB-231 [23]): 9.75%
- Activity (MDA-MB-231 [24]): Active
- Activity (MDA-MB-231 [25]): 17.85%
- Activity (MDA-MB-231 [26]): Active
- Activity (MDA-MB-231 [27]): 2.85%
- IC50 at 72 h [4]: > 60000 nM
- Activity (MDA-MB-231 [28]): 1.6%

- IC50 (MCF7 [1]): 1530 nM
- IC50 (MDA-MB-231 [3]): 1170 nM
- IC50 (T47D [5]): 1460 nM
Compound: CC(C)(C)OC(=O)NCCOc1ccc(Cl)cc1C(=O)N[C@@H](Cc1ccccc1)C(=O)Nc1ccc2c(c1)S(=O)(=O)C=C2
- IC50 at 72 h [4]: 1730 nM

- IC50 (MCF7 [1]): 1620 nM
- IC50 (MDA-MB-468 [2]): 3530 nM
- IC50 (MDA-MB-231 [3]): 1400 nM
- IC50 (T47D [5]): 1580 nM
Compound: NCCOc1ccc(Cl)cc1C(=O)N[C@@H](Cc1ccccc1)C(=O)Nc1ccc2c(c1)S(=O)(=O)C=C2
- IC50 at 72 h [4]: 2030 nM
